{
  "source": "patent US20110171135A1",
  "about": "“PEST-CONTROL COMPOSITIONS AND METHODS HAVING HIGH TARGET AND LOW NON-TARGET ACTIVITY” (priority 2008, published 2011)",
  "key": {"tyramine receptor (TyrR)": {"target": "T1, tyramine receptor (TyrR) (Drosophila melanogaster, UniProt P22270)", "T1 construct": "The open reading frame of the Drosophila tyramine receptor (TyrR) may be amplified via PCR; expressed in transfected cells; host or cells: Drosophila Schneider cells", "T1 sequence (P22270 27-601)": "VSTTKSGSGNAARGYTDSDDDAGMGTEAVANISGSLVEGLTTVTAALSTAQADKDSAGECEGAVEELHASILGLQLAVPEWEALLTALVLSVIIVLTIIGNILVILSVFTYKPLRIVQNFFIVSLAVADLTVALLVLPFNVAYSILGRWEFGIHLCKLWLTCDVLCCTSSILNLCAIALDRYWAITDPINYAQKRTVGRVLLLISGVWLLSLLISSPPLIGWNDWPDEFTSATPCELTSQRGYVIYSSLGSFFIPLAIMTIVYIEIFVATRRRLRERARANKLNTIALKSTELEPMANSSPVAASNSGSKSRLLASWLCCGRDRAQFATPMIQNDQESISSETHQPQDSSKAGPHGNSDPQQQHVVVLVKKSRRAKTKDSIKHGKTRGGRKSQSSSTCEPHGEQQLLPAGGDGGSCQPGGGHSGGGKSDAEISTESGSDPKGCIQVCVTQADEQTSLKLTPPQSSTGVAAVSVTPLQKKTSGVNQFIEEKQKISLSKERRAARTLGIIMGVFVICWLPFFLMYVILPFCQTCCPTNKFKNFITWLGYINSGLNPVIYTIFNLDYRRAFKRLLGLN", "assay": "Tyramine receptor binding with 3H-tyramine in transfected Schneider cells", "text": "Tyramine receptor may be amplified, for example, from a Drosophila melanogaster head cDNA phage library. Phage DNA may be purified from this library by known methods using a liquid culture lysate. The open reading frame of the Drosophila tyramine receptor (TyrR) may be amplified via PCR, and the PCR product may be digested, and the TyrR open reading frame may be inserted into an expression vector using known methods, and transfected Schneider cell clones may be prepared.\nTyramine receptor binding/uptake may be performed to determine which of the transfected clones have the highest levels of functionally active tyramine receptor protein, and the selected clone may be propagated and stored in liquid nitrogen. Aliquots of the selected clone are grown for whole cell binding and for plasma membrane preparation for kinetic and screening studies.\nFor binding studies, cells transfected with the tyramine receptor (about 1×10^6 cells/ml) are cultured in each well of a multi-well plate, and binding is assessed using ^3H-tyramine and unlabeled tyramine. […] Saturation binding experiments may be performed to determine Bmax and Kd values for TyrR."}, "[1]": {"tested_on": "tyramine receptor mutant (TyrRneo30) strains", "format": "in vivo, Drosophila", "settings": "topically applied at LD50 determined against wild type; mortality 24 h after treatment; FIG. 4", "description": "LD50 values of tested chemicals (determined against wild type Drosophila) were topically applied against wild type and tyramine receptor mutant (TyrRneo30) strains. Mortality was determined 24 h after treatment. Data are the average of three replicates, 5 flies per replicate. This experiment was repeated five times."}, "[2]": {"tested_on": "wild-type strain of E. coli", "assay": "MIC over successive weeks (resistance development) in E. coli", "format": "cell-based", "settings": "MIC determined weekly and applied, repeated for 4 weeks", "description": "Test compositions and conventional pesticides are compared to determine their respective ability to maintain pesticidal effectiveness over successive generations of pest species. For example, a wild-type strain of E. coli is treated with both penicillin (group 1) and a test composition from Table 1 or Table 2 (group 2). MIC (minimum inhibitory concentration; the lowest concentration of an antibacterial that will inhibit the visible growth of a microorganism after overnight incubation) values are determined at 1-week post-treatment for both groups, and the appropriate MIC amount is applied to both test populations. This is repeated for 4 weeks. […] In contrast, the MIC value for group 2 remains static, indicating a lack of resistance development among the group 2 population."}},
  "data": [
    {"compound": "NCCc1ccc(O)cc1", "note": "[Blend 3H-tyramine, ^3H-tyramine]", "values": [
      {"measurement": "3H-tyramine concentration at which maximum specific binding occurs", "setting": "tyramine receptor (TyrR); cells transfected with the tyramine receptor", "result": "about 5 nM"}
    ]},
    {"compound": "Cc1ccc(C(C)C)cc1O", "note": "[carvacrol]", "values": [
      {"measurement": "effect (mortality) on Drosophila expressing a mutant form of the tyramine receptor", "setting": "[1]", "result": "did not affect"}
    ]},
    {"compound": "NCCc1ccc(O)cc1", "note": "[tyramine]", "values": [
      {"measurement": "response of untransfected cells to tyramine", "setting": "tyramine receptor (TyrR); untransfected cells, concentration as high as about 100 μM", "result": "do not respond"}
    ]},
    {"compound": "penicillin", "values": [
      {"measurement": "course of the MIC value over time (resistance development)", "setting": "[2]", "result": "increases over time"}
    ]}
  ]
}
